We go through 14 compounds from patent US10023591B2, “Heterocyclic derivatives and use thereof” (C&C RESEARCH LABORATORIES, priority 2014, dated 2018).

For one assay, the system named is STAT3. In words: STAT3 reporter gene assay (luciferase), LNCaP stable cell line pSTAT3-TA-luc, IL-6 stimulation. The class given is cell-based, human. The conditions noted are these: Homo sapiens. The protocol: 1-1) Experiment on the Inhibition of STAT3 Activity
A human prostate cancer cell line (LNCaP stable cell line; plasmid pSTAT3-TA-luc), which contains a stably operating STAT3 promoter, was cultured in RPMI1640 medium (Cat No. 11875, Life Technologies) containing 10% fetal bovine serum (FBS) (Cat No. SH30396, Thermo Scientific) and 150 μg/mL G-418 solution (Cat No. 04 727 894 001, Roche). The reporter gene assay using LNCaP stable cell line was performed in RPMI1640 medium containing 3% DCC-FBS without G-418 solution. LNCaP stable cells were plated in two (2) white 96-well plates with 30,000 cells/50 μL in each well. The cells were cultured at 37° C., under 5% CO2 for 24 hours, and then treated with the compounds listed in Examples which were diluted in various concentrations. Subsequently, IL-6 was added to each well with a final concentration of 10 ng/mL. Upon completion of the treatment with the compounds and IL-6, the cells were cultured at 37° C., under 5% CO2 for 24 hours. The plates were observed under microscope and drug precipitation and particular findings were investigated and recorded.
(§1) The luciferase assay and the cell viability assay were performed respectively with one of the two plates. For the luciferase assay, the liquid media in the 96-well plate was removed, and then, 20 μL, of passive cell lysis buffer was added to each well. After shaking the plate for 30 minutes, luciferase activities of each well were measured in a PHERAstar™ microplate reader (BMG LABTECH) using a luciferase assay system (Cat No. E1501, Promega). For the cell viability assay, the 96-well plate was placed at room temperature for 30 minutes, added with 20 μL/well of CellTiter-Glo solution (Cat No. G7573, Promega), and shaken for 10 minutes in order to measure cytotoxicity caused by the compounds listed in Examples with a PHERAstar™ microplate reader (BMG LABTECH). Wells without 0.1% DMSO and stimulation were used as a negative control and wells with 0.1% DMSO and stimulation were used as a positive control.
(§2) The results of evaluation on the inhibitory effect of the compounds listed in the Examples on the dimerization of STAT3 and STAT1 obtained via the STAT3 and STAT1 reporter gene assays are shown in Table 9 below.

Assay [1] deals with NCI-N87 stomach cancer cell line. Put plainly: Cell growth inhibition assay, NCI-N87 (CellTiter-Glo). Type of assay: cell-based. The conditions noted are these: Homo sapiens; NCI-N87, 5,000 cells/well, 96 hours. How it is done: The inhibitory effects of the compounds of the present invention against the growth of cancer cells were evaluated as shown below. The cancer cell lines including prostate cancer cell lines (LNCaP, DU-145), stomach cancer cell line (NCI-N87), and breast cancer cell lines (MDA-MB-468) were cultured under the protocol provided by each supplier. A medium supplemented with 10 ng/mL of IL-6 was used for LNCaP, a prostate cancer cell line, when treated with a drug. Each type of cells to be used in experiments was sub-cultured in a 96-well plate by counting the exact number of cells using Tali™ Image-based Cytometer (Life Technologies). In a 96-well plate, DU-145 was employed with 3,000 cells/well; NCI-N87 was employed with 5,000 cells/well; and LNCaP and MDA-MB-468 were employed with 10,000 cells/well. The cells were treated with the compounds listed in Examples which were diluted in various concentrations. Upon completion of the compounds treatment, LNCaP, DU-145, NCI-N87 cells were cultured at 37° C. under 5% CO2 for 96 hours, and MDA-MB-468 cells were cultured at 37° C. in air for 96 hours. Subsequently, the cells were observed under microscope and drug precipitation and particular findings were investigated and recorded. And then, the 96-well plate was placed at room temperature for 30 minutes, added with 20 pt/well of CellTiter-Glo solution (Cat No. G7573, Promega) and shaken for 10 minutes, followed by being subjected to the measurement using PHERAstar™ microplate reader (BMG LABTECH) according to the supplier's general luminometer protocol. Wells where only culture liquid added without cell plating were used as a negative control, whereas wells where culture liquid containing 0.1% DMSO instead of the compounds listed in Examples were used as a positive control.

The next assay relates to STAT1. Put plainly: STAT1 reporter gene assay (luciferase), U2OS stable cell line pGL4-STAT1-TA-luc, IFN-γ stimulation. Type of assay: cell-based, human. The conditions noted are these: Homo sapiens, IFN-γ 50 ng/mL, 8 hours, read-out: IC50 (μM) pSTAT1. The protocol: 1-2) Experiment on the Inhibition of STAT1 Activity
A human osteosarcoma cell line (U2OS stable cell line; pGL4-STAT1-TA-luc), which contains a stably operating STAT1 promoter, was cultured in McCoy 5′A medium (Cat No. 16600, Life Technologies) containing 10% FBS (Cat No. SH30396, Thermo Scientific) and 1000 μg/mL G418 solution (Cat No. 04 727 894 001, Roche). The reporter gene assay using U2OS stable cell line was performed in McCoy 5′A medium containing 10% FBS without G-418 solution. U2OS stable cells were plated in two (2) white 96-well plates with 25,000 cells/50 pt in each well. The cells were cultured at 37° C., under 5% CO2 for 24 hours, and then treated with the compounds listed in Examples which were diluted in various concentrations. Subsequently, IFN-γ was added to each well with a final concentration of 50 ng/mL. Upon completion of the treatment with the compounds and IFN-γ, the cells were cultured at 37° C., under 5% CO2 for 8 hours. The plates were observed under microscope and drug precipitation and particular findings were investigated and recorded.
as §1, with “of” for “of the”, “μL” for “μL,”
as §2

Structures are written as SMILES.

For `CC(C)(c1cc(Cl)cc(NC(=O)c2cc3cc(C(C)(C)S(C)(=O)=O)ccc3s2)c1)c1cc(OCC(F)(F)F)cc(OC(F)(F)F)c1` [Example 12, N-(3-chloro-5-(2-(3-(2,2,2-trifluoroethoxy)-5-(trifluoromethoxy)phenyl)propan-2-yl)phenyl)-5-(2-(methylsulfonyl)propan-2-yl)benzo[b]thiophene-2-carboxamide], the results for the IC50 (with STAT3; in assay [1]; in the assay with STAT1) were 0.002 µM, 0.025 µM and over 50 µM, respectively.
The matching figures for `CC(C)(c1cc(Cl)cc(NC(=O)c2cc3cc(C(C)(C)S(C)(=O)=O)ccc3s2)c1)c1cc(OCC(F)F)cc(OC(F)(F)F)c1` [Example 13, N-(3-chloro-5-(2-(3-(2,2-difluoroethoxy)-5-(trifluoromethoxy)phenyl)propan-2-yl)phenyl)-5-(2-(methylsulfonyl)propan-2-yl)benzo[b]thiophene-2-carboxamide]: 0.01 µM, 0.028 µM and over 50 µM.
The matching figures for `C=CCOc1cc(OC(F)(F)F)cc(C(C)(C)c2cc(Cl)cc(NC(=O)c3cc4cc(C(C)(C)S(C)(=O)=O)ccc4s3)c2)c1` [Example 14, N-(3-(2-(3-(allyloxy)-5-(trifluoromethoxy)phenyl)propan-2-yl)-5-chlorophenyl)-5-(2-(methylsulfonyl)propan-2-yl)benzo[b]thiophene-2-carboxamide]: 0.0083 µM, 0.01 µM and over 50 µM.
For `CC(C)(c1cc(Cl)cc(NC(=O)c2cc3cc(C(C)(C)S(C)(=O)=O)ccc3s2)c1)c1cc(OC2CC2)cc(OC(F)(F)F)c1` [Example 15, N-(3-chloro-5-(2-(3-cyclopropoxy-5-(trifluoromethoxy)phenyl)propan-2-yl)phenyl)-5-(2-(methylsulfonyl)propan-2-yl)benzo[b]thiophene-2-carboxamide] the same measures were 0.0057 µM, 0.0093 µM and over 50 µM.
With `Cn1cccc1C(C)(C)c1cc(Cl)cc(NC(=O)c2cc3cc(C(C)(C)S(C)(=O)=O)ccc3s2)c1` [Example 31, N-(3-chloro-5-(2-(1-methyl-1H-pyrrol-2-yl)propan-2-yl)phenyl)-5-(2-(methylsulfonyl)propan-2-yl)benzo[b]thiophene-2-carboxamide], the IC50 with STAT3 was 0.0025 µM; in assay [1], 0.24 µM; in the assay with STAT1, over 50 µM.
Regarding `Cc1csc(C(C)(C)c2cc(Cl)cc(NC(=O)c3cc4cc(C(C)(C)S(C)(=O)=O)ccc4s3)c2)c1` [Example 32, N-(3-chloro-5-(2-(4-methylthiophen-2-yl)propan-2-yl)phenyl)-5-(2-(methylsulfonyl)propan-2-yl)benzo[b]thiophene-2-carboxamide], the IC50 was 0.01 µM in the assay on STAT3, 0.076 µM in assay [1] and over 50 µM in the assay with STAT1.
For `CC(C)(c1ccc(Cl)cc1)c1cc(Cl)cc(NC(=O)c2cc3cc(CS(C)(=N)=O)ccc3s2)c1` (stereo not drawn) [Example 36, N-(3-chloro-5-(2-(4-chlorophenyl)propan-2-yl)phenyl)-5-((S-methylsulfonimidoyl)methyl)benzo[b]thiophene-2-carboxamide] the same measures were 0.064 µM, 0.25 µM and 42.1 µM.
The matching figures for `CC(C)(c1ccc2sc(C(=O)Nc3cc(Br)cc(Oc4ccc(Cl)cc4)c3)cc2c1)S(C)(=O)=O` [Example 39, N-(3-bromo-5-(4-chlorophenoxy)phenyl)-5-(2-(methylsulfonyl)propan-2-yl)benzo[b]thiophene-2-carboxamide]: 0.0089 µM, 0.031 µM and over 50 µM.
The matching figures for `COCCS(=O)(=O)C(C)(C)c1ccc2sc(C(=O)Nc3cc(Cl)cc(Oc4ccc(Cl)cc4)c3)cc2c1` [Example 57, N-(3-chloro-5-(4-chlorophenoxy)phenyl)-5-(2-((2-methoxyethyl)sulfonyl)propan-2-yl)benzo[b]thiophene-2-carboxamide]: 0.027 µM, 0.2 µM and over 50 µM.
For the compound `CC(C)(c1ccc2sc(C(=O)Nc3cc(Cl)nc(Oc4cc(Cl)cc(Cl)c4)c3)cc2c1)S(C)(=O)=O` [Example 62, N-(2-chloro-6-(3,5-dichlorophenoxy)pyridin-4-yl)-5-(2-(methylsulfonyl)propan-2-yl)benzo[b]thiophene-2-carboxamide], the figures for the IC50 (in the assay with STAT3; in assay [1]; with STAT1) were 0.02 µM, 0.034 µM and over 50 µM, respectively.
The matching figures for `CC(C)(c1ccc2sc(C(=O)Nc3cc(Cl)nc(Oc4ccc(F)cc4)c3)cc2c1)S(C)(=O)=O` [Example 68, N-(2-chloro-6-(4-fluorophenoxy)pyridin-4-yl)-5-(2-(methylsulfonyl)propan-2-yl)benzo[b]thiophene-2-carboxamide]: 0.011 µM, 0.03 µM and over 50 µM.
Take `CC(C)(c1ccc2sc(C(=O)Nc3cc(Br)nc(Oc4ccc(Cl)cc4)c3)cc2c1)S(C)(=O)=O` [Example 69, N-(2-bromo-6-(4-chlorophenoxy)pyridin-4-yl)-5-(2-(methylsulfonyl)propan-2-yl)benzo[b]thiophene-2-carboxamide]: the IC50 in the assay on STAT3 is 0.01 µM; in assay [1] it was 0.015 µM; with STAT1, over 50 µM.
For `COc1cc(Cl)cc(Oc2cc(NC(=O)c3cc4cc(C(C)(C)S(C)(=O)=O)ccc4s3)cc(Cl)n2)c1` [Example 70, N-(2-chloro-6-(3-chloro-5-methoxyphenoxy)pyridin-4-yl)-5-(2-(methylsulfonyl)propan-2-yl)benzo[b]thiophene-2-carboxamide] the same measures were 0.024 µM, 0.057 µM and over 50 µM.
The matching figures for `O=C(Nc1cc(Cl)nc(Oc2ccc(Cl)cc2)c1)c1cc2cc(C3CCCS3(=O)=O)ccc2s1` (stereo not drawn) [Example 73, N-(2-chloro-6-(4-chlorophenoxy)pyridin-4-yl)-5-(1,1-dioxidotetrahydrothiophen-2-yl)benzo[b]thiophene-2-carboxamide]: 0.13 µM, 0.45 µM and over 50 µM.
